Target: T1, JAK1 (Homo sapiens, UniProt P23458)
T1 construct: endogenous in cells; host or cells: Molt4 (ATCC CRL-1582) and Ramos (ATCC CRL-1596), mixed lysate 1:2
Test: Kinobeads assay, JAK1
Type: binding
Details: mixed Molt4/Ramos lysate, read-out: Inhibition values (IC50) JAK1
Outline: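 Mixed Molt4/Ramos cell lysate (1:2) was incubated 3 hours in the cold with kinobeads and a 9-step 1:3 compound dilution series. The no-compound control carried 2% DMSO. Bead-bound JAK1 was eluted, detected by antibody dot blot with infrared fluorescence, and IC50 derived from dose-response curves.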

T1 sequence (P23458 whole entry): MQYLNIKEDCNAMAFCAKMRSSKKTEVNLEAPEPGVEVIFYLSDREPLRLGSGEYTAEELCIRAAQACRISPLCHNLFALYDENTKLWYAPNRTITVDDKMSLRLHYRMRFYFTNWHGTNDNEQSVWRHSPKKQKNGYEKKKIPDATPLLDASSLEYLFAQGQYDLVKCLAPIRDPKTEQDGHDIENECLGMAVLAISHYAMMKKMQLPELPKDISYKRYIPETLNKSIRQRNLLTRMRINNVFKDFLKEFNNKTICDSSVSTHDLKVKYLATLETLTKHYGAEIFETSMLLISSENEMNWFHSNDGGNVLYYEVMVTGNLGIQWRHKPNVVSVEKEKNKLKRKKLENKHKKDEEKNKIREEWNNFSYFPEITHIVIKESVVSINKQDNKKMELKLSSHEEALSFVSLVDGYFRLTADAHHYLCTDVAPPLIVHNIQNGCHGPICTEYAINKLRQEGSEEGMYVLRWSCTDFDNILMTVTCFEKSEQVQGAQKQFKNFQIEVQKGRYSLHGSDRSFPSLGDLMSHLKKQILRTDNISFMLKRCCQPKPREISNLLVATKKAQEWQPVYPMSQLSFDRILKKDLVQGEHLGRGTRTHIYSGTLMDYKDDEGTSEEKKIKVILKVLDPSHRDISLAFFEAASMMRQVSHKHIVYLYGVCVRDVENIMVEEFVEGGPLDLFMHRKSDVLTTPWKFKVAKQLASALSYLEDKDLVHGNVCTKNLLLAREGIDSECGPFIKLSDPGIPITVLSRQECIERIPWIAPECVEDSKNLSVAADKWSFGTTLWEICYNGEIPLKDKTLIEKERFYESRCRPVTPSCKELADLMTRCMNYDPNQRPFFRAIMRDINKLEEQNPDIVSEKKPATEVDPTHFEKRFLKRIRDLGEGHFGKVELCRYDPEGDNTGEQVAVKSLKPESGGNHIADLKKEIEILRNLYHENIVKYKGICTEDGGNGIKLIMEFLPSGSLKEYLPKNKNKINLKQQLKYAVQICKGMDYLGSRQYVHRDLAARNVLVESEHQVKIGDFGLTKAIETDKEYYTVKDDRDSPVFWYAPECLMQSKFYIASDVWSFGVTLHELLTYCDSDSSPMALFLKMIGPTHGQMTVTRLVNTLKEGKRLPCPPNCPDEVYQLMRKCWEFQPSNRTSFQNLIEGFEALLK

Compound	IC50 [nM]
Cn1cc(Nc2ncc(F)c(N[C@H](CO)c3ccccc3)n2)cn1 [Compound 3]	1000 to 10000
Cn1cc(Nc2ncc(Cl)c(N[C@H](CO)c3cccnc3)n2)cn1 [Compound 91]	100 to 1000
OC[C@@H](Nc1nc(Nc2cn[nH]c2)ncc1Cl)c1cccc(F)c1 [Compound 88]	100 to 1000
Cn1cc(Nc2ncc(Cl)c(N[C@H](CO)c3cccc(F)c3)n2)cn1 [Compound 85]	100 to 1000
OCCn1cc(Nc2ncc(Cl)c(NC(CO)c3cccc(Br)c3)n2)cn1 (centres unmarked) [Compound 93]	1000 to 10000

Next, values leading:

IC50 [nM]	Compound
100 to 1000	OCCn1cc(Nc2ncc(Cl)c(N[C@H](CO)c3cccc(F)c3)n2)cn1 [Compound 86]
100 to 1000	OCCn1cc(Nc2ncc(Cl)c(N[C@H](CO)c3cccnc3)n2)cn1 [Compound 92]
100 to 1000	CN(C)CCNC(=O)Cn1cc(Nc2ncc(Cl)c(N[C@H](CO)c3ccccc3)n2)cn1 [Compound 89]
100 to 1000	CN(C)CCCNC(=O)Cn1cc(Nc2ncc(Cl)c(N[C@H](CO)c3ccccc3)n2)cn1 [Compound 90]
< 100	NC(=O)Cn1cc(Nc2ncc(Cl)c(N[C@H](CO)c3cccc(F)c3)n2)cn1 [Compound 87]

Tested on: STAT5 phosphorylation downstream of JAK3 in human YT cells
Test: pSTAT5 cell assay (IL-2 stimulated YT cells, AlphaScreen)
Type: cell-based
Details: IL-2 stimulation, read-out: Inhibition values (IC50) pSTAT5
Excerpt: STAT5 phosphorylation represents one of the proximal events in the signalling cascade downstream of JAK3 activation. Therefore STAT5 phosphorylation is an appropriate readout to assess the mechanistic effect of JAK3 inhibition. Stimulation of human YT cells, an NK-like cell line, with interleukin-2 (IL-2) results in phosphorylation of STAT5 at tyrosine residue 694 (Tyr694) that can be quantitatively measured by immunodetection with specific antibodies and an appropriate detection method, in this case AlphaScreen assay technology.
Human YT cells were grown in RPMI medium (Lonza, BE12-167) with 2 mM L-Glutamine (Invitrogen, 25030-024) and 10% heat-inactivated FBS (Invitrogen, 10106-169) and kept in a humidified incubator (37° C., 5% CO2). Cells were harvested by centrifugation, washed once with HBSS (Invitrogen, 14180-046), resuspended in HBSS at 1.5×10^6 cells/ml and 0.9×10^4 cells were seeded in 6 μl per well in a 96 well White plate (PerkinElmer, 6005569).
Test compounds were dissolved in DMSO and a 1:3 dilution series (9 steps) was prepared. To generate a dose response curve, 3 μl of fourfold concentrated compound in 4% DMSO/HBSS were added to each cell sample in the 96 well plate resulting in a final DMSO concentration of 1% DMSO. Cells were incubated for one hour in a humidified incubator (37° C., 5% CO2). To each well 3 μl of a fourfold concentrated IL-2 solution (Recombinant human IL-2, Peprotech 200-02; 120 nM solution in HBSS) was added and incubated for 30 minutes at room temperature. Cells were lysed by adding 3 μl of 5× lysis buffer (SureFire lysis buffer; Perkin Elmer, TGRS5S10K) and incubated for 10 minutes at room temperature with gentle shaking
For signal detection by AlphaScreen® technology the SureFire phospho-STAT5 (Tyr694/Tyr699) kit was used according to instructions provided by the manufacturer (Perkin Elmer, TGRS5S10K). Acceptor beads were added as recommended by the manufacturer (Reactivation buffer/Activation buffer/Acceptor beads at a ratio of 40:10:1) and incubated at room temperature for 1.5 hours with gentle shaking Then donor beads were added as recommended (Dilution buffer/Donor beads at a ratio of 20:1) and incubated at room temperature for 1.5 hours with gentle shaking Plates were read on an Envision instrument (Perkin Elmer) with the AlphaScreen protocol. Data were analysed in BioAssay using the nonlinear regression for a sigmoidal dose-response with a variable slope.

IC50 [nM]	Compound
< 250	NC(=O)Cn1cc(Nc2ncc(Cl)c(N[C@H](CO)c3cccc(F)c3)n2)cn1 [Compound 87]

From US20140179664A1, “Heterocyclyl Pyrimidine Analogues As JAK Inhibitors” (Cellzome Limited, priority 2011, published 2014)
